Measured values as given in US12264146B2, “Rho kinase inhibitor, method for preparing same and uses thereof” (BEIJING INCREASE INNOVATIVE DRUG CO., LTD., priority 2018, dated 2025).

How the values were obtained:
Type in all cases: cell-based
prostacyclin (PGI2) = experiment: Expression of prostacyclin (PGI2) in EA.Hy926 endothelial cells, ELISA kit; settings: EA.Hy926 cell supernatant, 24 h
Procedure: (§1) Commercially available cytokine kits were used to detect the effects of the compounds of the present application on vascular endothelium-derived contracting factor endothelin, vascular endothelium-derived relaxing factor endothelial nitric oxide synthase, nitric oxide, and prostacyclin factor. The detection was performed according to the kit instructions. When testing the effect of the compound of the present application on cytokines, a normal control group, a fasudil hydrochloride group, and high-, medium- and low-dose groups of the compounds of the present application were set up for testing. The fasudil hydrochloride used in this test example was purchased from Beijing Sihuan Pharmaceutical Co., Ltd., with the SFDA approval number of H20173349. The EA.Hy926 cells used in this test example were purchased from Suzhou Beina Chuanglian Biotechnology Co., Ltd.
EA.Hy926 cells were taken and inoculated in a 96-well plate at 5×10^4 cells/mL, 100 μL per well, and cultured adherently for 24 hours, then the test compound prepared in DMEM medium was added, and an equal volume of DMEM medium was added in the normal control group, then the cells were cultured at 37° C. for 24 hours, and then the cell supernatant was taken and placed in an EP tube, and centrifuged for 15 min at 3000 r/min and 15° C. The resulting supernatant was transferred to a new EP tube, and then the detection was performed according to the instruction of ELISA kit (purchased from Wuhan Elabscience Biotechnology Co., Ltd., Cat. No. E-EL-0022c), and the detection results were shown in Table 3.

[1] = test system: endothelial nitric oxide synthase (eNOS); experiment: Endothelial nitric oxide synthase (eNOS) in EA.Hy926 endothelial cells, detection kit; settings: EA.Hy926 cell supernatant, 24 h
Procedure: as §1
Detection conditions: EA.Hy926 cells were inoculated at 1×10^5 […] in a 96-well plate, 100 μL per well, and cultured adherently for 24 hours, then the test compound prepared with DMEM medium was added, the normal control group was added with an equal volume of DMEM medium, then the cells were cultured for 24 hours at 37° C., and then the cell supernatant was taken and placed in an EP tube, and centrifuged at 3000 r/min and 4° C. for 15 minutes, the resulting supernatant was transferred to a new EP tube, diluted 3 times, and detected according to the instruction of eNOs detection kit (purchased from Wuhan Elabscience Biotechnology Co., Ltd., Cat. No. AK0017OCT12013), and the detection results were shown in Table 4.

[2] = Toxicity test on endothelial cells EA.hy926, CCK-8 cell viability; settings: human, 1000~0.32 μmol/L, 5-fold dilution, read-out: IC50 of Test compound (cytotoxicity on EA.hy926 cells)
Procedure: In this test example, 31 groups, i.e., Groups 1 to 31, were set, in which Group 1 was a blank control group, Group 2 was a normal control group, Group 3 was a positive control group, and Groups 4 to 31 were test groups of the compounds of the present application. The specific test operation comprised: 100 μL of endothelial cells EA.hy926 (purchased from Suzhou Beina Chuanglian Biotechnology Co., Ltd.) with a density of 5×10^4 was added to each well of a 96-well plate, and transferred to an incubator at 37° C. with 5% CO2 and saturated humidity conditions and cultured for 24 hours, 100 μL of 2× the test compound solution prepared and diluted with DMEM medium containing 10% fetal bovine serum was added, in which the test compound added in the positive control group was Fasudil hydrochloride (purchased from Beijing Sihuan Pharmaceutical Co., Ltd., SFDA approval number H20173349) solution with different concentrations, an equal volume of DMEM medium was added in the blank control group, an equal volume of PBS buffer was added in the normal control group, and a duplicate well was set for each concentration point. After adding the test compound, the culture was continued in the incubator for 24 hours, then 20 μL of CCK-8 detection solution (purchased from Beijing Solarbio Science & Technology Co., Ltd., Cat. No. CA1210) was added to each well, interacted at 37° C. for 2.5 hours, shaken and mixed well, and then the absorbance value at 450 nm was detected.
OD values were detected, and the cell viability values of test groups of different concentrations were calculated according to the cell viability calculation formula as follows: Cell viability=(Atest group−Ablank control)/(Anormal control−Ablank control)*100%
wherein A represented absorbance value at 450 nm.
Prism6.0 was used to obtain the inhibitor concentration-viability curve and to calculate the IC50 of the test compound, the correlation coefficient R^2>0.99; the inhibitor concentration-viability curves of Fasudil hydrochloride, R-YK1601, R-YK1603, R-YK1606, R-YK1607, R-YK1610 were shown in FIGS. 1 to 6, in which the abscissa was the logarithm on base 10 of the concentration of the test compound, and the ordinate was the cell activity (i.e., cell viability).

SMILES	expression of prostacyclin in endothelial cells: Detection result of test compound at low dose (0.4 μM) (prostacyclin (PGI2)) [pg/mL]	expression of prostacyclin in endothelial cells: Detection result of test compound at medium dose (2 μM) (prostacyclin (PGI2)) [pg/mL]	expression of prostacyclin in endothelial cells: Detection result of test compound at high dose (10 μM) (prostacyclin (PGI2)) [pg/mL]	expression of endothelial nitric oxide synthase in endothelial cells: Detection result of test compound at low dose (0.4 μM) [1] [pg/mL]	expression of endothelial nitric oxide synthase in endothelial cells: Detection result of test compound at medium dose (2 μM) [1] [pg/mL]	expression of endothelial nitric oxide synthase in endothelial cells: Detection result of test compound at high dose (10 μM) [1] [pg/mL]	IC50 at 24 h [2] [µM]
COc1ncc(C2CC2)c2c(S(=O)(=O)N3CCCNC[C@H]3C)cccc12 [Compound R-YK1600-2, (R)-4-cyclopropyl-1-methoxy-5-((2-methyl-1,4-diazacycloheptan-1-yl)sulfonyl)isoquinoline]	241.55 ± 0.12	245.98 ± 11.41	249.23 ± 0.75	2428.32 ± 287.58	2384.92 ± 317.27	2245.86 ± 224.65	145
CC(C)[C@@H]1CNCCCN1S(=O)(=O)c1cccc2c(O)nccc12 [Compound R-YK1609, (R)-5-((2-isopropyl-1,4-diazacycloheptan-1-yl)sulfonyl)isoquinolin-1-ol]	259.20 ± 2.21	260.34 ± 7.94	238.68 ± 3.34	2728.44 ± 257.58	2375.91 ± 287.28	2235.87 ± 213.65	327
CCCC[C@@H]1CNCCCN1S(=O)(=O)c1cccc2c(O)nccc12 [Compound R-YK1611, (R)-5-((2-butyl-1,4-diazacycloheptan-1-yl)sulfonyl)isoquinolin-1-ol]	232.61 ± 9.70	229.98 ± 11.41	249.23 ± 0.75	2652.53 ± 279.27	2291.59 ± 253.56	2195.70 ± 187.16	284
C[C@@H]1CNCCCN1S(=O)(=O)c1cccc2c(O)ncc(Cl)c12 [Compound R-YK1606, (R)-4-chloro-5-((2-methyl-1,4-diazacycloheptan-1-yl)sulfonyl)isoquinolin-1-ol]	292.24 ± 2.59	278.32 ± 46.42	258.58 ± 7.57	2974.79 ± 361.75	2400.67 ± 226.73	2286.01 ± 95.04	181
CCc1cnc(O)c2cccc(S(=O)(=O)N3CCCNC[C@H]3C)c12 [Compound R-YK1607, (R)-4-ethyl-5-((2-methyl-1,4-diazacycloheptan-1-yl)sulfonyl)isoquinolin-1-ol]	249.20 ± 2.28	257.34 ± 7.96	241.68 ± 3.34	2426.66 ± 220.56	2239.70 ± 249.84	2298.44 ± 265.33	230
C[C@@H]1CNCCCN1S(=O)(=O)c1cccc2cnccc12 [Compound R-YK1603, (R)-5-((2-methyl-1,4-diazacycloheptan-1-yl)sulfonyl)isoquinoline]	262.30 ± 0.77	272.58 ± 4.40	243.73 ± 15.66	2928.44 ± 257.48	2385.91 ± 387.57	2245.94 ± 213.65	256
